What is called IC50 is the concentration that inhibits the measured activity by half.

The record followed here is patent publication US20130274258A1, “CARBAZOLE AND CARBOLINE DERIVATIVES, AND PREPARATION AND THERAPEUTIC APPLICATIONS THEREOF” (PHILIP MORRIS PRODUCTS S.A., priority 2010, published 2013).

The assay concerns Jurkat cells. As to the kind of experiment: Jurkat cell viability, resazurin (Alamar Blue) assay. The assay is classed as cell-based. Particulars: Jurkat cells, 22 h then resazurin 4 h, three experiments in duplicates; for IC50: Homo sapiens, read-out: IC50. Here is the method:
The compounds were tested for pharmacological activity. In each of the tests, each compound was tested at […] in duplicates. […] The percentage of response relative to the DMSO control was then calculated for the mean value of the duplicates of each test. The values of the three tests were finally averaged and the standard deviations calculated.
Jurkat cells (10'000 cells/well) were incubated in the presence of various concentrations of compounds, doxorubicin or staurosporine. Twenty-two hours later, cells were incubated with resazurin (20 μg/ml) for 4 hours and fluorescence was measured at 590 nm.
On the technique in general: The colour change of resazurin is a common sign of viable cells or microbes.

Regarding `Cc1nccc2c1[nH]c1ccc(-c3ccc4ccccc4c3)cc12` [Example C1, 6-(naphthalen-2-yl)-1-methyl-9H-pyrido[3,4-b]indole], the “IC50 (μM)” value was “not active”. The same measure, in the same setting: the same measure for `Cc1nccc2c1[nH]c1ccc(-c3ccc(Cl)cc3)cc12` [Example C2, 6-(4-chlorophenyl)-1-methyl-9H-pyrido[3,4-b]indole]: “not active”; for `Cc1nccc2c1[nH]c1ccc(-c3ccc(C(F)(F)F)cc3)cc12` [Example C3, 6-(4-(trifluoromethyl)phenyl)-1-methyl-9H-pyrido[3,4-b]indole]: “not active”. On the same count and under the same terms, as for `COc1ccc(-c2ccc3[nH]c4c(C)nccc4c3c2)cc1` [Example C4, 6-(4-methoxyphenyl)-1-methyl-9H-pyrido[3,4-b]indole], the entry is “not active”.

As for `Cc1nccc2c1[nH]c1ccc(-c3cccc(N(C)C)c3)cc12` [Example C5, 6-(3-(N,N-dimethylamino)phenyl)-1-methyl-9H-pyrido[3,4-b]indole], the IC50 worked out at 11500 nM. Take `Cc1nccc2c1[nH]c1ccc(-c3cccc(C(=O)O)c3)cc12` [Example C6, 6-(3-carboxyphenyl)-1-methyl-9H-pyrido[3,4-b]indole]: the “IC50 (μM)” value is on record as “not active”.

Consider `Cc1nccc2c1[nH]c1ccc(-c3cccc(CC(=O)O)c3)cc12` [Example C7, 6-(3-carboxymethylphenyl)-1-methyl-9H-pyrido[3,4-b]indole], for which the “IC50 (μM)” value is listed as “not active”. Turning to `Cc1nccc2c1[nH]c1ccc(-c3cncnc3)cc12` [Example C8, 6-(pyrimidin-5-yl)-1-methyl-9H-pyrido[3,4-b]indole], the IC50 is 27800 nM.

On to `Cc1ccccc1-c1ccc2[nH]c3c(C)nccc3c2c1` [Example C9, 6-(2-methylphenyl)-1-methyl-9H-pyrido[3,4-b]indole], for which the IC50 worked out at 41800 nM.

`Cc1nccc2c1[nH]c1ccc(-c3ccsc3)cc12` [Example C10, 6-(thiophen-3-yl)-1-methyl-9H-pyrido[3,4-b]indole]: the “IC50 (μM)” value is “not active”. Turning to `C=CCn1c2ccc(-c3ccc4c(c3)CCO4)cc2c2ccnc(C)c21` [Example C11], the IC50 was greater than 10000 nM. Same read-out and setting: as for `Cc1nccc2c3cc(-c4ccc5c(c4)CCO5)ccc3n(Cc3ccccc3)c12` [Example C12], the figure is greater than 10000 nM. With `CCCCCn1c2ccc(-c3ccc4c(c3)CCO4)cc2c2ccnc(C)c21` [Example C13], the IC50 is greater than 10000 nM. The same measure, in the same setting: as for `Cc1nccc2c1[nH]c1ccc(-c3ccccc3F)cc12` [Example E4, 6-(2-fluorophenyl)-1-methyl-9H-pyrido[3,4-b]indole], the figure is 4070 nM; as for `Cc1nccc2c1[nH]c1ccc(-c3cccc(F)c3)cc12` [Example E5, 6-(3-fluorophenyl)-1-methyl-9H-pyrido[3,4-b]indole], 567 nM; as for `Cc1cc(C)cc(-c2ccc3[nH]c4c(C)nccc4c3c2)c1` [Example E8, 6-(3,5-dimethylphenyl)-1-methyl-9H-pyrido[3,4-b]indole], 128 nM. Same read-out and setting: as for `Cc1nccc2c1[nH]c1ccc(-c3cccc(CN)c3)cc12` [Example E10, 6-(3-(aminomethyl)phenyl)-1-methyl-9H-pyrido[3,4-b]indole], the figure is 988 nM. Regarding `CC(=O)NCc1cccc(-c2ccc3[nH]c4c(C)nccc4c3c2)c1` [Example E11, 6-(3-(acetamidomethyl)phenyl)-1-methyl-9H-pyrido[3,4-b]indole], the IC50 is 34 nM. Turning to `Cc1nccc2c1[nH]c1ccc(-c3cccc(C(N)=O)c3)cc12` [Example E12, 6-(3-aminocarbonylphenyl)-1-methyl-9H-pyrido[3,4-b]indole], the IC50 worked out at 46 nM. Same read-out and setting: the same measure for `CC(=O)c1cccc(-c2ccc3[nH]c4c(C)nccc4c3c2)c1` [Example E13, 6-(3-acetylphenyl)-1-methyl-9H-pyrido[3,4-b]indole]: 2030 nM; for `COC(=O)c1cccc(-c2ccc3[nH]c4c(C)nccc4c3c2)c1` [Example E14, 6-(3-methoxycarbonylphenyl)-1-methyl-9H-pyrido[3,4-b]indole]: 7230 nM; for `CC(=O)OCc1cccc(-c2ccc3[nH]c4c(C)nccc4c3c2)c1` [Example E15, 6-(3-(acetoxymethyl)phenyl)-1-methyl-9H-pyrido[3,4-b]indole]: 34 nM.

Turning to `CC(=O)OCc1cc(COC(C)=O)cc(-c2ccc3[nH]c4c(C)nccc4c3c2)c1` [Example E16, 6-(3,5-bis(acetoxymethyl)phenyl)-1-methyl-9H-pyrido[3,4-b]indole], the IC50 was determined as 52 nM. On the same count and under the same terms, as for `Cc1nccc2c1[nH]c1ccc(-c3cccc(O)c3)cc12` [Example E17, 6-(3-hydroxyphenyl)-1-methyl-9H-pyrido[3,4-b]indole], the figure is 195 nM; as for `Cc1nccc2c1[nH]c1ccc(-c3cccc(CO)c3)cc12` [Example E18, 6-(3-hydroxymethylphenyl)-1-methyl-9H-pyrido[3,4-b]indole], 46 nM; as for `Cc1nccc2c1[nH]c1ccc(-c3cccc(C(C)O)c3)cc12` (stereo not drawn) [Example E19, 6-(3-(1-hydroxyethyl)phenyl)-1-methyl-9H-pyrido[3,4-b]indole], 1400 nM. For `Cc1nccc2c1[nH]c1ccc(-c3ccc(C#N)cc3)cc12` [Example E22, 6-(4-cyanophenyl)-1-methyl-9H-pyrido[3,4-b]indole], the IC50 worked out at 5000 nM. On the same count and under the same terms, as for `Cc1nccc2c1[nH]c1ccc(-c3cccc(CC#N)c3)cc12` [Example E23, 6-(3-cyanomethylphenyl)-1-methyl-9H-pyrido[3,4-b]indole], the figure is 64 nM; as for `Cc1nccc2c1[nH]c1ccc(-c3cc(C#N)ccc3F)cc12` [Example E24, 6-(5-cyano-2-fluorophenyl)-1-methyl-9H-pyrido[3,4-b]indole], 968 nM. Same read-out and setting: as for `Cc1nccc2c1[nH]c1ccc(-c3ccc4[nH]ccc4c3)cc12` [Example E26, 6-(1H-indol-5-yl)-1-methyl-9H-pyrido[3,4-b]indole], the figure is 374 nM; as for `Cc1nccc2c1[nH]c1ccc(-c3cccc(Cc4nn[nH]n4)c3)cc12` [Example E27, 6-(((2H-tetrazol-5-yl)methyl)phenyl)-1-methyl-9H-pyrido[3,4-b]indole], 2200 nM. On to `Cc1ccc(-c2ccc3[nH]c4c(C)nccc4c3c2)o1` [Example E28, 6-(5-methylfuran-2-yl)-1-methyl-9H-pyrido[3,4-b]indole], for which the IC50 was 130 nM.

Regarding `Cc1nccc2c1[nH]c1ccc(-c3ccc4c(c3)OCO4)cc12` [Example E30, 6-(benzo[d][1,3]dioxol-5-yl)-1-methyl-9H-pyrido[3,4-b]indole], the IC50 is 490 nM. On to `Cc1nccc2c1[nH]c1ccc(-c3ccc(C=O)o3)cc12` [Example E31, 6-(5-formylfuran-2-yl)-1-methyl-9H-pyrido[3,4-b]indole], for which the IC50 was 2290 nM. Regarding `Cc1nccc2c1[nH]c1ccc(-c3ccc(CO)o3)cc12` [Example E32, 6-(5-hydroxymethylfuran-2-yl)-1-methyl-9H-pyrido[3,4-b]indole], the IC50 is 3660 nM.

Take `Cc1nccc2c1[nH]c1ccc(-c3cccc(N)c3)cc12` [Example E33, 6-(3-aminophenyl)-1-methyl-9H-pyrido[3,4-b]indole]: the IC50 amounted to 96 nM.

For the compound `Cc1nccc2c1[nH]c1ccc(-c3cccc(NC=O)c3)cc12` [Example E34, 6-(3-formamidophenyl)-1-methyl-9H-pyrido[3,4-b]indole], the IC50 is 28 nM. Consider `FC(F)(F)c1nccc2c1[nH]c1ccc(-c3ccc4c(c3)CCO4)cc12` [Example E36, 6-(2,3-dihydrobenzofuran-5-yl)-1-trifluoromethyl-9H-pyrido[3,4-b]indole], for which the IC50 was 96 nM. Regarding `CCc1nccc2c1[nH]c1ccc(-c3ccc4c(c3)CCO4)cc12` [Example E37, 6-(2,3-dihydrobenzofuran-5-yl)-1-ethyl-9H-pyrido[3,4-b]indole], the IC50 turned out to be 4 nM. On to `CCCc1nccc2c1[nH]c1ccc(-c3ccc4c(c3)CCO4)cc12` [Example E38, 6-(2,3-dihydrobenzofuran-5-yl)-1-propyl-9H-pyrido[3,4-b]indole], for which the IC50 worked out at 230 nM. On the same count and under the same terms, the same measure for `CC(C)c1nccc2c1[nH]c1ccc(-c3ccc4c(c3)CCO4)cc12` [Example E39, 6-(2,3-dihydrobenzofuran-5-yl)-1-isopropyl-9H-pyrido[3,4-b]indole]: 302 nM. Regarding `CCc1nccc2c1[nH]c1ccc(-c3cccc(COC)c3)cc12` [Example E40, 6-(3-(methoxymethyl)phenyl)-1-ethyl 9H-pyrido[3,4-b]indole], the half-maximal inhibitory concentration (IC50) amounted to 2880 nM. The same measure, in the same setting: as for `CCNC(=O)NCc1cccc(-c2ccc3[nH]c4c(C)nccc4c3c2)c1` [Example E41], the figure is 1240 nM; as for `Cc1nccc2c1[nH]c1ccc(-c3cccc(CN(C)C)c3)cc12` [Example E42, N,N-dimethyl-1-(3-(1-methyl-9H-pyrido[3,4-b]indol-6-yl)phenyl)methanamine], 850 nM. With `CCc1nccc2c1[nH]c1ccc(-c3cccc(COCCOC)c3)cc12` [Example E43, 6-(3-((2-methoxyethoxy)methyl)phenyl)-1-ethyl 9H-pyrido[3,4-b]indole], the IC50 is 340 nM. Consider `Cc1nccc2c1[nH]c1ccc(-c3cccc(CNS(C)(=O)=O)c3)cc12` [Example E45], for which the IC50 is 52 nM.

As for `Cc1nccc2c1[nH]c1ccc(-c3cccc(S(N)(=O)=O)c3)cc12` [Example E46, 3-(1-methyl-9H-pyrido[3,4-b]indol-6-yl)benzenesulfonamide], the IC50 was 260 nM. On the same count and under the same terms, the same measure for `Cc1nccc2c1[nH]c1ccc(-c3cccc(S(=O)(=O)NCCO)c3)cc12` [Example E47, N-(2-hydroxyethyl)-3-(1-methyl-9H-pyrido[3,4-b]indol-6-yl)benzenesulfonamide]: 1210 nM.
